Measured values as given in ChEMBL document CHEMBL1806491, “The tandem chain extension aldol reaction used for synthesis of ketomethylene tripeptidomimetics targeting hPEPT1” (Bioorg Med Chem Lett, 2011).
Non-standard residues stand in square brackets, D forms with d. Residues, ends and D or L forms follow the SMILES beside them. *: point of attachment. 1Nal = N[C@@H](Cc1cccc2ccccc12)C(=O)O; Chg = N[C@H](C(=O)O)C1CCCCC1; Nva = CCC[C@H](N)C(=O)O; Bz = O=C(c1ccccc1)*

What was measured:
[1] = biological target: T1, Solute carrier family 15 member 1 (Homo sapiens, UniProt P46059); experiment: (§1) Binding affinity to PEPT1 in human Caco2 cells assessed as inhibition of [14C]Gly-Sar apical uptake after 5 mins by liquid scintillation counting; assay type: cell-based, Caco-2
T1 sequence (P46059 whole entry): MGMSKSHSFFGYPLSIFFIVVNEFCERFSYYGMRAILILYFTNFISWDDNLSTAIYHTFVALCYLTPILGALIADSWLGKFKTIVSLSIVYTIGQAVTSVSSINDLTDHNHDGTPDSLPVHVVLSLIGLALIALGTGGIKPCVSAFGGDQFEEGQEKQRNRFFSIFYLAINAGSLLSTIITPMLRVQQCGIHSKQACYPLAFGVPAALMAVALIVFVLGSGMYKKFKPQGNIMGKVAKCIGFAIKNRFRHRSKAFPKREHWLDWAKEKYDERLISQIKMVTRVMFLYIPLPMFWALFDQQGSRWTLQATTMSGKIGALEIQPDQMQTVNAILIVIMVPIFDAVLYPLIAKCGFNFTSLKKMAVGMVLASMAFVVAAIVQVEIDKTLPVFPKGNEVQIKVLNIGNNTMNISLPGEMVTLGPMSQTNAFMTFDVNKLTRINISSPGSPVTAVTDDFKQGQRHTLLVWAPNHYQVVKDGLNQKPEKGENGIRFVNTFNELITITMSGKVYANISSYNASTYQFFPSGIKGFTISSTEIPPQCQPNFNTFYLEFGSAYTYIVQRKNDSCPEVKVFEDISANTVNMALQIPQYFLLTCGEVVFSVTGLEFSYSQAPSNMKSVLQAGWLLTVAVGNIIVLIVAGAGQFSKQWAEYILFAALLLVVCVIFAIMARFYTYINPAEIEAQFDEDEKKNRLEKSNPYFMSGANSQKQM

[2] = biological target: T2, Solute carrier family 15 member 1 (Homo sapiens) (UniProt P46059); experiment: as §1; assay type: cell-based; conditions: Caco-2
T2 sequence (whole entry): T1 sequence (P46059 whole entry)

SMILES | Ki [1] | inhibition [2]
C[C@H](NC(=O)[C@H](COC(=O)c1ccccc1)CC(=O)[C@@H](N)Cc1ccccc1)C(=O)O | 324 µM | Dose-dependent effect
CCC[C@H](NC(=O)[C@H](COC(=O)c1ccccc1)CC(=O)[C@@H](N)Cc1ccccc1)C(=O)O | 251 µM | Dose-dependent effect
N[C@@H](Cc1ccccc1)C(=O)C[C@@H](COC(=O)c1ccccc1)C(=O)N[C@H](C(=O)O)C1CCCCC1 | – | Dose-dependent effect
N[C@@H](Cc1ccccc1)C(=O)N[C@@H](COC(=O)c1ccccc1)C(=O)N[C@@H](Cc1cccc2ccccc12)C(=O)O (H-Phe-Ser(Bz)-[1Nal]-OH) | – | Dose-dependent effect
N[C@@H](Cc1ccccc1)C(=O)N[C@@H](COC(=O)c1ccccc1)C(=O)N[C@H](C(=O)O)C1CCCCC1 (H-Phe-Ser(Bz)-[Chg]-OH) | – | Dose-dependent effect
CCC[C@H](NC(=O)[C@H](COC(=O)c1ccccc1)NC(=O)[C@@H](N)Cc1ccccc1)C(=O)O (H-Phe-Ser(Bz)-[Nva]-OH) | – | Dose-dependent effect
C[C@H](NC(=O)[C@H](CO)NC(=O)[C@@H](N)Cc1ccccc1)C(=O)O (H-Phe-Ser-Ala-OH) | 257 µM | Dose-dependent effect
